Test results from patent US9726659B2, “CMPF as a biomarker for diabetes and associated methods” (The Governing Council of the University of Toronto, priority 2012, dated 2017).

Tests used:
[1] = system: primary human islets; test: Glucose-stimulated insulin secretion in primary human islets; assay type: cell-based; conditions: 200 uM, 24 hour pre-incubation, vs vehicle and 20 uM
Description: LG=2.8 mM glucose, HG=16.7 mM glucose, KCl=16.7 mM glucose+30 mM KCl. *p<0.05.
Since beta cell failure is a major underlying cause of both GDM and T2D, the effect of increased CMPF on beta cell function was investigated both in vitro and in vivo. Using physiological concentrations of CMPF (20 uM and 200 uM, as observed in our NGT-pregnant and GDM-pregnant samples respectively (FIG. 2)), as well as a vehicle control (EtOH), its effect was studied on glucose-stimulated insulin secretion (GSIS) and insulin secretion in response to direct depolarization using the secretagogue KCl in an immortalized murine beta cell line (MIN6), as well as primary isolated human and murine islets (FIG. 3A). […] Therefore, high physiologically relevant levels of CMPF impair GSIS.

[2] = system: MIN6 cells; test: Annexin V and propidium iodide staining for apoptosis and necrosis; assay type: cell-based, murine; conditions: 20 uM or 200 uM, 4 hrs
Description: A) MIN6 cells were treated for 4 hrs with 0 uM (EtOH vehicle control), 20 uM or 200 uM CMPF prior to being loaded with Annexin V and propidium iodide fluorescent dyes, and counterstained with Hoechst dye. […] B) Primary CD1 islets were dispersed and treated with vehicle control (0 CMPF, black), 20 uM CMPF (grey), or 200 uM CMPF (white) for 48 hours, then stained with Annexin V, Propidium Iodide and Hoechst dye. Quantification of double positive staining was assessed by an Arrayscan VTI HCS reader.
Next the mechanism underlying the observed impairment in GSIS following treatment with CMPF was investigated. To determine whether CMPF was inhibiting GSIS by inducing beta cell apoptosis, Annexin V and Propidium Iodide staining was performed in MIN6 cells treated with vehicle (EtOH), 20 uM or 200 uM CMPF for 4 hrs to look for apoptosis and necrosis respectively. […] MIN6 cells treated with 5 mM H2O2 for 3 hrs were used as a positive control (FIG. 4).

[3] = system: murine islets; test: Total insulin content in murine islets; assay type: cell-based; conditions: 200 uM
Description: Murine islets were treated for 24 hrs with vehicle control (0 CMPF), 20 uM (20 CMPF), or 200 uM (200 CMPF) CMPF, and assessed for total insulin content and mRNA expression. […] Decreased expression of insulin processing enzymes PCSK1, 2 and CpE (F), (G), (H) indicate that CMPF may also impair post-translational insulin processing. Finally, CMPF causes decreased expression of the beta cell glucose transporter GLUT2, and GCK, the rate-limiting enzyme critical for glucose metabolism (I) and (J), perhaps impairing glucose sensing and metabolism. In all cases n=4, *P<0.05.
In the absence of apoptosis and necrosis, CMPF must be impairing GSIS by causing beta cell dysfunction. First, the effect of CMPF treatment on insulin biosynthesis was investigated to determine if insulin is available to be released upon stimulation. MIN6, murine and human islets were treated with vehicle control, 20 uM and 200 uM CMPF for 4 hrs (MIN6) or 24 hrs (islets), and total insulin content measured. […] Lower total insulin content may be due to either defective insulin processing from proinsulin to mature insulin, or insufficient insulin transcription. To determine the mechanism through which CMPF is reducing total insulin content, quantitative PCR (qPCR) was performed on RNA that was isolated from murine islets treated with either vehicle control or 200 uM CMPF for 24 hrs.

[4] = Plasma CMPF after IP injection; assay type: in vivo, CD1 mice; conditions: for up to 2 hours but not at 6 hours post-injection, n=4/group
Description: (§1) CD1 mice were injected IP with either vehicle control (black) or CMPF (white). A) Plasma samples were taken at 10, 30, 60, 120 and 360 minutes post-IP injection and assayed for CMPF. […] Over the 3-day course of IP injections, mice were monitored for body weight (B), random-fed blood glucose (C) and plasma insulin (C). There was no difference in any of these parameters. Following 3 consecutive days of CMPF injections, mice were fasted for 14 hrs and OGTTs were performed.

[5] = system: CD1 mice; test: IP injection for 3 or 7 days: monitoring, fasting values, OGTT, ipITT; assay type: in vivo; conditions: for fasting blood glucose / fasting plasma insulin / glucose tolerance (OGTT) / insulin secretion during OGTT: 14 hr fast
Description: as §1
CD1 mice were injected IP with either vehicle control (black) or CMPF (white). Over the 7-day course of IP injections, mice were monitored for body weight (A), and random-fed blood glucose (B) and plasma insulin (C). […] The lower body weights on day 8 are following a 14-hour fast, immediately prior to the OGTTs. Following 7 consecutive days of CMPF injections, mice were fasted for 14 hrs and OGTTs were performed. […] (n=8 per group, p<0.05).
To investigate the effect of CMPF on glucose homeostasis, (FIG. 8C). […] Therefore, elevated plasma CMPF concentrations cause impaired beta cell function and prevent GSIS in vivo, resulting in glucose intolerance. Chronically elevated CMPF levels may also induce insulin resistance. […]

[6] = system: dispersed CD1 mouse islet cells; test: Immunofluorescent staining of FOXO1 and PDX1 localization; assay type: cell-based; conditions: CMPF-treated islets
Description: The cellular localization of FOXO1 and PDX1 were determined in dispersed CD1 mouse islet cells using immunofluorescence. The presence of the organic anion transporters (OATs) were determined in dispersed human islet cells also using immunofluorescence. Staining was performed as previously described (Diao et al., 2008). Images were acquired using a confocal microscope (Quorum Wave FX Spinning Disc; Perkin Elmer, Waltham M L, USA) and Volocity software (Perkin Elmer).
To determine the mechanism through which CMPF decreases insulin biosynthesis we examined its effect on these key regulators. Under normal conditions, AKT and GSK3β have reciprocal activities. Active pAKT phosphorylates and inactivates GSK3β, preventing phosphorylation of downstream targets (Humphrey et al., 2010). […] FOXO1 is normally sequestered in the cytosol due to phosphorylation by AKT (Kitamura et al., 2005). […] Altered activity of these transcription factors is further confirmed by decreased mRNA levels of key target genes including Inst, transcription factors Pdx1 and Mafa, proinsulin processing enzymes CpE, Pc1 and Pc2, and the glucose transporter Glut2 (Boucher et al., 2006; Kaneto et al. 2008) (FIG. 18a).

[7] = system: islets; test: GSIS with CMPF conjugated to fatty acid-free BSA; assay type: cell-based; conditions: conjugated for 6 hours prior to addition of islets, N=3
Description: CMPF was conjugated to fatty acid free BSA for 6 hours prior to addition of islets for green and blue bars. The same protocol used for the conjugation of oleate was used. Black and white bars indicate addition of CMPF with 0.1% BSA in the media without pre-conjugation. N=3. *P<0.05.

[8] = after seven days of IP injection
[9] = after three days of IP injection

total DNA [3]: absence of changes | plasma CMPF level after IP injection [4]: significantly elevated
SMILES: CCCc1oc(CCC(=O)O)c(C(=O)O)c1C [CMPF, 3-carboxy-4-methyl-5-propyl-2-furanpropanoic acid]
GSIS [1]: impairs GSIS | Annexin V and propidium iodide staining (apoptosis, necrosis) [2]: No significant staining | total insulin content ([3]; 24 hrs, vs vehicle): significantly reduced | body weight ([5]; 3-day course of IP injections): no difference | random-fed blood glucose ([5]; 3-day course of IP injections): no difference | random-fed plasma insulin ([5]; 3-day course of IP injections): no difference | body weight ([5]; 7-day course of IP injections): no difference | random-fed blood glucose ([5]; 7-day course of IP injections): no difference | fasting blood glucose [5, 8]: significantly higher | fasting plasma insulin [5, 8]: significantly higher | fasting blood glucose [5, 9]: significantly higher | fasting plasma insulin [5, 9]: significantly lower | glucose tolerance (OGTT) ([5]; after 3 days of IP injection): impaired glucose tolerance | insulin secretion during OGTT ([5]; after 3 days of IP injection): significantly impaired insulin secretion | glucose tolerance (OGTT) ([5]; after 7 days of IP injection): significantly impaired glucose tolerance | insulin secretion during OGTT ([5]; after 7 days of IP injection): significantly impaired insulin secretion | random-fed plasma insulin ([5]; days 4-7 of injections): significantly elevated | fed-state glucagon ([5]; seven-day treatment): hyperglucagonemia | insulin sensitivity by insulin-tolerance testing (ipITT) ([5]; seven-day treatment, vs vehicle): no significant difference | FOXO1 localization [6]: translocated to the nucleus | PDX1 localization [6]: sequestered outside of the nucleus | effect of conjugation to fatty acid-free BSA on CMPF-impaired GSIS [7]: no effect
